Measured values taken from patent US8530465B2, “1, 2-disubstituted amido-anthraquinone derivatives, preparation method and application thereof” (National Defense Medical Center, priority 2010, dated 2013).

Key:
[1] = test system: HCT-116; assay: NCI drug screen, HCT-116; type: cell-based, human; conditions: HCT-116 (Colon Cancer); 1.00E−5 Molar
Protocol: (§1) In brief, cellular protein levels were determined after 48 hours of drug exposure by sulforhodamine B colorimetry. Through the use of a time 0 cell control, the cell growth can be determined for each cell line thus allowing calculations of the 50% growth inhibitory concentration (GI50), the total growth inhibition (TGI), and the 50% lethal concentration (LC50). Comparison to plates not exposed to drug permits determination of concentration and times of exposure conferring 50% net growth inhibition (GI50), TGI, and 50% cell kill (LC50).
(§2) The screening system in United State National Cancer Institute (NCI) is consisted of 60 kinds of different human cancer cells, which can be used to assay the growth-inhibiting ability or cell toxicity of a compound against various cancer and tumor at a certain concentration.

[2] = test system: NCI-H322M; assay: NCI drug screen, NCI-H322M; type: cell-based, human; conditions: NCI-H322M (Non-Small Cell Lung Cancer); 1.00E−5 Molar
Protocol: as §1, §2

[3] = test system: ACHN; assay: NCI drug screen, ACHN; type: cell-based, human; conditions: ACHN (Renal Cancer); 1.00E−5 Molar
Protocol: as §1, §2

[4] = test system: SNB-75; assay: NCI drug screen, SNB-75; type: cell-based, human; conditions: SNB-75 (CNS Cancer); 1.00E−5 Molar
Protocol: as §1, §2

[5] = test system: HOP-92; assay: NCI drug screen, HOP-92; type: cell-based, human; conditions: HOP-92 (Non-Small Cell Lung Cancer); 1.00E−5 Molar
Protocol: as §1, §2

[6] = test system: SK-OV-3; assay: NCI drug screen, SK-OV-3; type: cell-based, human; conditions: SK-OV-3 (Ovarian Cancer); 1.00E−5 Molar
Protocol: as §1, §2

[7] = test system: HT29; assay: NCI drug screen, HT29; type: cell-based, human; conditions: HT29 (Colon Cancer); 1.00E−5 Molar
Protocol: as §1, §2

[8] = test system: SF-539; assay: NCI drug screen, SF-539; type: cell-based, human; conditions: SF-539 (CNS Cancer); 1.00E−5 Molar
Protocol: as §1, §2

[9] = test system: COLO 205; assay: NCI drug screen, COLO 205; type: cell-based, human; conditions: COLO 205 (Colon Cancer); 1.00E−5 Molar
Protocol: as §1, §2

[10] = test system: UACC-62; assay: NCI drug screen, UACC-62; type: cell-based, human; conditions: UACC-62 (Melanoma); 1.00E−5 Molar
Protocol: as §1, §2

[11] = test system: MALME-3M; assay: NCI drug screen, MALME-3M; type: cell-based, human; conditions: MALME-3M (Melanoma); 1.00E−5 Molar
Protocol: as §1, §2

[12] = test system: NCI-H522; assay: NCI drug screen, NCI-H522; type: cell-based, human; conditions: NCI-H522 (Non-Small Cell Lung Cancer); 1.00E−5 Molar
Protocol: as §1, §2

[13] = test system: SF-295; assay: NCI drug screen, SF-295; type: cell-based, human; conditions: SF-295 (CNS Cancer); 1.00E−5 Molar
Protocol: as §1, §2

[14] = MTT assay, PhTERT-SEAP (H1299); type: cell-based, human; conditions: human, H1299 cells carrying the PhTERT-SEAP reporter, PhTERT-SEAP (H1299); for viability at 1 μM: Conc. 1 μM, read-out: Relative MTT viability (%); for viability at 10 μM: Conc. 10 μM; for viability at 10 μM / viability at 100 μM: read-out: Relative MTT viability (%) (converted); for viability at 100 μM: Conc. 100 μM
How it was run: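 Cultured cells received MTT for 4 h at 37 °C, then lysis buffer overnight at 37 °C. Optical density was read at 550 nm.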

[15] = test system: MDA-MB-468; assay: NCI drug screen, MDA-MB-468; type: cell-based, human; conditions: MDA-MB-468 (Breast Cancer); 1.00E−5 Molar
Protocol: as §1, §2

[16] = test system: T-47D; assay: NCI drug screen, T-47D; type: cell-based, human; conditions: T-47D (Breast Cancer); 1.00E−5 Molar
Protocol: as §1, §2

[17] = NCI drug screen, A489; type: cell-based, human; conditions: A489 (Renal Cancer); 1.00E−5 Molar
Protocol: as §1, §2

[18] = test system: MDA-MB-231/ATCC; assay: NCI drug screen, MDA-MB-231/ATCC; type: cell-based, human; conditions: MDA-MB-231/ATCC (Breast Cancer); 1.00E−5 Molar
Protocol: as §1, §2

[19] = test system: SW-620; assay: NCI drug screen, SW-620; type: cell-based, human; conditions: SW-620 (Colon Cancer); 1.00E−5 Molar
Protocol: as §1, §2

[20] = test system: SR; assay: NCI drug screen, SR; type: cell-based, human; conditions: SR (Leukemia); 1.00E−5 Molar
Protocol: as §1, §2

[21] = test system: hTERT; assay: Secreted alkaline phosphatase (SEAP) assay, PhTERT-SEAP (H1299); type: cell-based; conditions: Homo sapiens, 24 hours; for activity at 1 µM: NCI-H1299, Conc. 1 μM, read-out: Relative SEAP activity (%); for activity at 10 µM: NCI-H1299, Conc. 10 μM; for activity at 10 µM / activity at 100 µM: read-out: Relative SEAP activity (%) (converted); for activity at 100 µM: NCI-H1299, Conc. 100 μM
How it was run: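 Stable H1299 clone carrying the −3338 to +1 bp hTERT promoter upstream of SEAP; ~10^4 cells/well treated with varying drug amounts for 24 h at 37° C. Media heat-treated 65° C. 10 min, mixed with diethanolamine/MgCl2/L-homoarginine buffer and 12 mM p-nitrophenyl phosphate final; SEAP activity taken as rate of A405 increase.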

[22] = test system: RXF 393; assay: NCI drug screen, RXF 393; type: cell-based, human; conditions: RXF 393 (Renal Cancer); 1.00E−5 Molar
Protocol: as §1, §2

[23] = test system: MDA-MB-435; assay: NCI drug screen, MDA-MB-435; type: cell-based, human; conditions: MDA-MB-435 (Melanoma); 1.00E−5 Molar
Protocol: as §1, §2

SMILES: Cc1ccc(C(=O)Nc2ccc3c(c2NC(=O)c2ccc(C)cc2)C(=O)c2ccccc2C3=O)cc1 [CC-04, 1,2-bis-(4-methylbenzamido)-anthraquinone]
- Growth Percent [1]: 78.55%
- Growth Percent [2]: 97.74%
- Growth Percent [3]: 112.43%
- Growth Percent [4]: 102.26%
- Growth Percent [5]: 91.21%
- Growth Percent [6]: 109.62%
- Growth Percent [7]: 99.39%
- Growth Percent [8]: 97.26%
- Growth Percent [9]: 108.57%
- Growth Percent [10]: 87.50%
- Growth Percent [11]: 127.16%
- Growth Percent [12]: 72.05%
- Growth Percent [13]: 110.81%
- viability at 1 μM [14]: 100 ± 4.4%
- viability at 10 μM [14]: 117%
- viability at 100 μM [14]: 62%
- Growth Percent [15]: 104.17%
- Growth Percent [16]: 100.00%
- Growth Percent [17]: 124.08%
- Growth Percent [18]: 93.29%
- Growth Percent [19]: 93.79%
- Growth Percent [20]: 87.69%
- activity at 1 µM [21]: 108 ± 9.03%
- activity at 10 µM [21]: 97.1%
- activity at 100 µM [21]: 30.9%
- Growth Percent [22]: 88.25%

SMILES: Cc1ccc(C(=O)Nc2c(NC(=O)CCl)ccc3c2C(=O)c2ccccc2C3=O)cc1 [CC-12, 1-(4-methylbenzamido)-2-(chloroacetamido)-anthraquinone]
- Growth Percent [1]: −54.27%
- Growth Percent [2]: 95.05%
- Growth Percent [23]: 4.82%
- Growth Percent [3]: 21.92%
- Growth Percent [4]: 6.31%
- Growth Percent [5]: −68.77%
- Growth Percent [6]: 106.24%
- Growth Percent [7]: 3.37%
- Growth Percent [8]: −31.42%
- Growth Percent [9]: −53.43%
- Growth Percent [10]: −67.80%
- Growth Percent [11]: −22.41%
- Growth Percent [12]: 57.88%
- Growth Percent [13]: 79.70%
- viability at 1 μM [14]: 104 ± 7.83%
- viability at 10 μM [14]: 2.77%
- Growth Percent [15]: −83.42%
- Growth Percent [16]: −49.46%
- Growth Percent [17]: 123.78%
- Growth Percent [18]: 24.67%
- Growth Percent [19]: −43.27%
- Growth Percent [20]: −19.84%
- activity at 1 µM [21]: 110 ± 2.99%
- activity at 10 µM [21]: -2.49%
- activity at 100 µM [21]: -2.47%

SMILES: O=C(CCl)Nc1ccc2c(c1NC(=O)Cc1ccccc1)C(=O)c1ccccc1C2=O [CC-23, 1-[2-(phenyl)acetylamino]-2-(chloroacetamido)-anthraquinone]
- Growth Percent [1]: 67.55%
- Growth Percent [2]: 104.38%
- Growth Percent [23]: 80.40%
- Growth Percent [3]: 79.64%
- Growth Percent [4]: 109.14%
- Growth Percent [5]: 73.63%
- Growth Percent [7]: 88.84%
- Growth Percent [8]: 107.09%
- Growth Percent [10]: 59.67%
- Growth Percent [11]: 47.07%
- Growth Percent [12]: 43.37%
- Growth Percent [13]: 98.48%
- viability at 1 μM [14]: 82 ± 1.79%
- viability at 10 μM [14]: 5.94%
- viability at 100 μM [14]: 3.98%
- Growth Percent [15]: 51.02%
- Growth Percent [17]: 91.79%
- Growth Percent [18]: 82.04%
- Growth Percent [19]: 83.41%
- Growth Percent [20]: −31.25%
- activity at 1 µM [21]: 84.8 ± 3.12%
- activity at 10 µM [21]: 9.49%
- activity at 100 µM [21]: 7.43%

SMILES: Cc1ccc(C(=O)Nc2c(NC(=O)CN3CCCC3)ccc3c2C(=O)c2ccccc2C3=O)cc1 [CC-38, 1-(4-methylbenzamido)-2-[2-(tetrahydro-1H-1-pyrrolyl)acetylamino]-anthra quinone]
- Growth Percent [1]: 58.46%
- Growth Percent [2]: 82.50%
- Growth Percent [23]: 79.14%
- Growth Percent [3]: 82.23%
- Growth Percent [4]: 66.03%
- Growth Percent [5]: 59.33%
- Growth Percent [6]: 82.13%
- Growth Percent [7]: 31.34%
- Growth Percent [8]: 81.29%
- Growth Percent [9]: 65.60%
- Growth Percent [10]: 76.82%
- Growth Percent [11]: 82.24%
- Growth Percent [12]: 103.02%
- Growth Percent [13]: 68.97%
- viability at 1 μM [14]: 88.2 ± 4.94%
- viability at 10 μM [14]: 69%
- viability at 100 μM [14]: 5.05%
- Growth Percent [15]: 69.27%
- Growth Percent [16]: 44.33%
- Growth Percent [17]: 68.12%
- Growth Percent [18]: 73.34%
- Growth Percent [19]: 82.29%
- activity at 1 µM [21]: 81.7 ± 4.8%
- activity at 10 µM [21]: 59.1%
- activity at 100 µM [21]: 3.93%
- Growth Percent [22]: 63.80%

SMILES: Cc1ccc(C(=O)Nc2c(NC(=O)CN3CCN(C)CC3)ccc3c2C(=O)c2ccccc2C3=O)cc1 [CC-43, 1-(4-methylbenzamido)-2-[2-(4-methylpiperazino)acetylamino]-anthraquinone]
- Growth Percent [1]: 8.37%
- Growth Percent [2]: 72.60%
- Growth Percent [23]: 11.15%
- Growth Percent [3]: 49.87%
- Growth Percent [4]: 82.17%
- Growth Percent [5]: 90.68%
- Growth Percent [6]: 108.91%
- Growth Percent [7]: 3.69%
- Growth Percent [8]: 62.68%
- Growth Percent [9]: 2.29%
- Growth Percent [10]: −20.65%
- Growth Percent [11]: 10.84%
- Growth Percent [12]: 88.21%
- Growth Percent [13]: 89.86%
- viability at 1 μM [14]: 78.8 ± 3.47%
- viability at 10 μM [14]: 29.5%
- viability at 100 μM [14]: 8.11%
- Growth Percent [15]: 7.43%
- Growth Percent [16]: 52.62%
- Growth Percent [17]: 67.36%
- Growth Percent [18]: 37.00%
- Growth Percent [19]: 39.17%
- Growth Percent [20]: −43.70%
- activity at 1 µM [21]: 77.4 ± 1.5%
- activity at 10 µM [21]: 13.4%
- activity at 100 µM [21]: 3.15%
- Growth Percent [22]: 68.84%
